In patent publication US20260240914A1, “MENIN-MLL INHIBITORS AND COMPOSITIONS FOR PROLIFERATION OF BETA CELLS” (BIOMEA FUSION, INC., priority 2022, published 2026):

How the values were obtained:
Type in all cases: cell-based
[1] = test system: human pancreatic islet beta cells; test: Beta cell proliferation in human islet microtissues (EdU / NKX6.1 3D staining and microscopy); details: for proliferating beta cell fraction (EdU+NKX6.1+/NKX6.1 %): 0.3 μM
Method: (§1) The ability of menin-MLL inhibitors to induce beta cell proliferation is tested on human islet microtissue preparations (InSphero). Briefly, human islet microtissues are produced by enzymatic dissociation of the primary islet cells followed by controlled scaffold-free hanging-drop-based self-reaggregation of the islet cells (Misun et al., 2020, Adv. Biosyst. 2020, 4, 1900291). The process helps eliminate contaminating exocrine cells, while enabling homogenous and native-like distribution of endocrine cells within each islet microtissue. Islet microtissues generated by this process are uniform in size, and cellular composition, long lived, functionally robust and display long-term and stable functionality and viability during in vitro culture (Misun et al., 2020, Adv. Biosyst. 2020, 4, 1900291). The methodology confirms primary human beta cells can be cultured long term (few weeks) under ex-vivo culture conditions to enable beta cell expansion ex-vivo.
Islet microtissues (MTs) were aggregated for 5 days and then released into ultra-low attachment plates. Half of the plates were maintained in standard culture medium (5.5 mM glucose), and half were cultured in high-glucose culture medium (GTX, 8 mM glucose) starting at Day 9, for the duration of the whole experiment. Starting on Day 12 (after 3 days of GTX pre-treatment for the relevant plates), dosing with compound 10, a representative irreversible menin-MLL inhibitor, was initiated, using a Tecan D300e Digital Dispenser for harmine and Biomea compound. DMSO was normalized by volume across all wells. Media was exchanged and compounds redosed every 2-3 days throughout the experiment. EdU was included during the final 4 days of each treatment period. Compound dosing was randomized; to avoid compound cross-contamination between wells, all media exchanges were performed using 96-well deep-well plates with pipette tip exchange.
Proliferating cells were labeled in 3D by incubating MTs with […] EdU during the final 4 days of compound treatment. At the described termination point (1, 2, or 3 weeks), MTs were washed twice with PBS, fixed for 15 min in 4% PFA, washed twice more with PBS and stored in PBS with 0.05% sodium azide until staining. Islet MTs were then permeabilized with permeabilization buffer (Triton® X-100, 0.5% in PBS w/o Mg2+Ca2+) and washed twice with PBS. EdU was labeled using the Click-it reaction (Click-iT™ EdU Alexa Fluor™ 647 HCS Assay, Thermo Fisher). MTs were washed twice with PBS and blocked with 10% FCS solution to prevent nonspecific antibody binding, before overnight incubation with rabbit mAB NKX6.1 [EPR20405] (Abcam, ab221549) at a 1:200 dilution in antibody dilution buffer (10% FCS, 0.2% Triton® X-100 in PBS w/o Mg2+Ca2+) as a […]. Goat anti-rabbit secondary antibody AF568 (ThermoFisher A11036) was used as secondary antibody at a 1:200 dilution in antibody dilution buffer, along with DAPI. Finally, islet MTs were transferred into Akura 384-well plates and cleared with ScaleS4 for 3D imaging. Images were acquired using the Yokogawa CQI Benchtop High-Content Analysis System, taking fluorescent images in […] z-steps in blue, red and far-red channels. DAPI-, NKX6.1- and EdU-positive nuclei and signal colocalization were quantified in 3D using a customized CellPathfinder pipeline. Proliferating cells and proliferating-cells were manually counted to validate automated results. Statistical significance was determined with One-way ANOVA and Dunnett's multiple comparisons test, rejecting the null hypothesis at p=0.05. Outliers were detected with ROUT's outlier test (Q=5%). No outlier test was applied to the proliferating cells.

human islet beta cells [2] = test: Total insulin content of human islet microtissues (insulin ELISA of lysates)
Method: as §1, with “The methodology confirms primary human beta cells can be cultured long term (few weeks) under ex-vivo culture conditions to enable beta cell expansion ex-vivo.” left out
(§2) At the described termination point (1, 2, or 3 weeks), culture media supernatants were collected for measurement of chronic insulin secretion (insulin secreted since last medium exchange, i.e. 72 hours in this project). […] Tissues were next analyzed for total ATP content using the Promega CellTiter-Glo® Luminescent Cell Viability Assay. […] Supernatants and lysates were appropriately diluted and total and secreted insulin were quantified using ALPCO Stellux® Chemi Human Insulin ELISA.

human islet beta cells [3] = test: Glucose stimulated insulin secretion assay in human islet microtissues
Method: as §1, with “The methodology confirms primary human beta cells can be cultured long term (few weeks) under ex-vivo culture conditions to enable beta cell expansion ex-vivo.” left out
as §2

human islet microtissues = test: Total ATP content of human islet microtissues (CellTiter-Glo cell viability); details: 0.075 μM, 0.15 μM and 0.3 μM; 1, 2 or 3 weeks; through the duration of the assay
Method: as §1, with “The methodology confirms primary human beta cells can be cultured long term (few weeks) under ex-vivo culture conditions to enable beta cell expansion ex-vivo.” left out
as §2

[4] = compound 10 treatment, dose-dependent
[5] = standard glucose culture conditions (5.5 mM glucose)

Structure (SMILES): C=CC(=O)N[C@@H]1CCCN(Cc2ccnc(C(=O)Nc3ccc(-c4cc5c(N6CCOCC6)ncnc5[nH]4)cc3)c2)C1 (racemic) [Compound 10]
- proliferation at all three concentrations ([1]; 0.075 μM, 0.15 μM, and 0.3 μM, 7, 14, 21 days, reached highest by day 21): increase in proliferation
- proliferating beta cell fraction (EdU+NKX6.1+/NKX6.1 %) ([1]; Day 14 of culture, compared to DMSO control (FIG. 1, graphs B)): substantially
- proliferating beta cell fraction (EdU+NKX6.1+/NKX6.1 %) ([1]; Day 21 of culture, compared to DMSO control (FIG. 2, graphs B)): substantially
- Total cell proliferation ([1]; compared to DMSO control): not increased
- Total β-cell count [1, 4]: significantly increased
- β-cell fraction (NKX6.1+/DAPI+ %) [1, 4]: significantly increased
- β-cell proliferation relative to solvent control ([1]; high glucose medium (8 mM glucose), 0.075 μM, 0.15 μM, and 0.3 μM, more pronounced than in standard medium): dose dependent increase
- beta cell insulin content (human islet beta cells [2]; high glucose conditions (8 mM glucose), treated for 2 and 3 weeks, vs vehicle control (DMSO)): dose dependent increase
- total insulin content (human islet beta cells [2]; [5]): largely unchanged
- glucose stimulated insulin secretion (human islet beta cells [3]; high glucose conditions (8 mM glucose), compared to vehicle treatment): improved
- glucose stimulated insulin secretion (improvement) (human islet beta cells [3]; [5]): not observed
- viability as revealed by ATP content readout (human islet microtissues): good viability
